Test results as given in ChEMBL document CHEMBL5316264, “Identification of N- and C-3-Modified Laudanosoline Derivatives as Novel Influenza PAN Endonuclease Inhibitors” (J Med Chem, 2023).

Target: Polymerase acidic protein (Influenza A virus (A/Puerto Rico/8/1934(H1N1)), UniProt P03433)
Conditions: hek293t

| Compound | IC50 [µM] |
| --- | --- |
| CCCOC(=O)[C@@H]1Cc2cc(O)c(O)cc2[C@H](Cc2ccc(O)c(O)c2)N1C(=O)c1ccccc1Cl | 10.8 |
| O=C1c2c(O)c(=O)ccn2N([C@@H]2c3ccccc3SCc3c2ccc(F)c3F)[C@@H]2COCCN12 [BALOXAVIR] | 300 |
